Source: PubChem BioAssay AID504473 (NMMLSC, 2011)
Calls of active or inactive are those of the source.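 How the source made its calls: active means GFP ratio to DMSO above 1.5 or below 0.66; inactive means the rest.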

Legend:
Assay in all cases: TOR pathway GFP reporter clone modulation in yeast – S. cerevisiae, GFP-tagged clone panel, flow cytometry (AID 504473);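 further: median GFP fluorescence of the cells measured by high-throughput flow cytometry; test concentration not given here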
YOR375C = conditions: S. cerevisiae GFP-tagged strains, 3 h
YBR248C = conditions: S. cerevisiae GFP-tagged strains, 3 h
YHL021C = conditions: S. cerevisiae GFP-tagged strains, 3 h
YEL060C = conditions: S. cerevisiae GFP-tagged strains, 3 h
YEL071W = conditions: S. cerevisiae GFP-tagged strains, 3 h
YIL069C = conditions: S. cerevisiae GFP-tagged strains, 3 h
YML063W = conditions: S. cerevisiae GFP-tagged strains, 3 h
YHR087W = conditions: S. cerevisiae GFP-tagged strains, 3 h
YNL142W = conditions: S. cerevisiae GFP-tagged strains, 3 h
YPL265W = conditions: S. cerevisiae GFP-tagged strains, 3 h
YML026C = conditions: S. cerevisiae GFP-tagged strains, 3 h
YDL205C = conditions: S. cerevisiae GFP-tagged strains, 3 h
YCR002C = conditions: S. cerevisiae GFP-tagged strains, 3 h
YGR034W = conditions: S. cerevisiae GFP-tagged strains, 3 h
[1] = target: General amino acid permease AGP1 (Saccharomyces cerevisiae S288c) (UniProt P25376); conditions: S. cerevisiae GFP-tagged strains, 3 h, YCL025C
General amino acid permease AGP1 (Saccharomyces cerevisiae S288c), sequence (P25376 whole entry, looked up): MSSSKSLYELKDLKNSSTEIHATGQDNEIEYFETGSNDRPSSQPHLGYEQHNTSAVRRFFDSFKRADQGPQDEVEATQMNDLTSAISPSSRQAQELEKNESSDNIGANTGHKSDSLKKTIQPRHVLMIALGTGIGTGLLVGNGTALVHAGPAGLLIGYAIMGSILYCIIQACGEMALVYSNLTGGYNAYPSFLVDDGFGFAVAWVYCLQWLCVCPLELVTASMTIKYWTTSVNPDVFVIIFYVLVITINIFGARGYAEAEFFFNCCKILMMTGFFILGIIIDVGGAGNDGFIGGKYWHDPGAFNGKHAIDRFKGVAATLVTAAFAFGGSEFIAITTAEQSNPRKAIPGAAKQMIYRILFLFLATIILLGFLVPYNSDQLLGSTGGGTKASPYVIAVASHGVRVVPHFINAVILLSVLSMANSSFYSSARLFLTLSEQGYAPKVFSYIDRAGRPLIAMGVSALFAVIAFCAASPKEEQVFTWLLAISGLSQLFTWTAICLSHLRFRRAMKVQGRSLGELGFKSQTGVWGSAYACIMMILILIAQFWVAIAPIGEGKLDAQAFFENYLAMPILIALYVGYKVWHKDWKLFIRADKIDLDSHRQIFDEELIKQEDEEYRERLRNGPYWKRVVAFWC

YKL119C = conditions: S. cerevisiae GFP-tagged strains, 3 h
YGR019W = conditions: S. cerevisiae GFP-tagged strains, 3 h
YLL039C = conditions: S. cerevisiae GFP-tagged strains, 3 h
YIL066C = conditions: S. cerevisiae GFP-tagged strains, 3 h
YAL060W = conditions: S. cerevisiae GFP-tagged strains, 3 h
YPL111W = conditions: S. cerevisiae GFP-tagged strains, 3 h
YGL135W = conditions: S. cerevisiae GFP-tagged strains, 3 h
YNL068C = conditions: S. cerevisiae GFP-tagged strains, 3 h
YPL150W = conditions: S. cerevisiae GFP-tagged strains, 3 h
YML004C = conditions: S. cerevisiae GFP-tagged strains, 3 h
YKL086W = conditions: S. cerevisiae GFP-tagged strains, 3 h
YIL052C = conditions: S. cerevisiae GFP-tagged strains, 3 h
YNR001C = conditions: S. cerevisiae GFP-tagged strains, 3 h
YOL052C-A = conditions: S. cerevisiae GFP-tagged strains, 3 h
YPL220W = conditions: S. cerevisiae GFP-tagged strains, 3 h
YJL144W = conditions: S. cerevisiae GFP-tagged strains, 3 h
YMR120C = conditions: S. cerevisiae GFP-tagged strains, 3 h
YDL204W = conditions: S. cerevisiae GFP-tagged strains, 3 h
YBL087C = conditions: S. cerevisiae GFP-tagged strains, 3 h
YKR093W = conditions: S. cerevisiae GFP-tagged strains, 3 h
YPR132W = conditions: S. cerevisiae GFP-tagged strains, 3 h
YOR136W = conditions: S. cerevisiae GFP-tagged strains, 3 h
YLR367W = conditions: S. cerevisiae GFP-tagged strains, 3 h
YMR105C = conditions: S. cerevisiae GFP-tagged strains, 3 h
YOR063W = conditions: S. cerevisiae GFP-tagged strains, 3 h
YIL043C = conditions: S. cerevisiae GFP-tagged strains, 3 h
YLR058C = conditions: S. cerevisiae GFP-tagged strains, 3 h
YMR307W = conditions: S. cerevisiae GFP-tagged strains, 3 h
YGL062W = conditions: S. cerevisiae GFP-tagged strains, 3 h
YER081W = conditions: S. cerevisiae GFP-tagged strains, 3 h
YLR185W = conditions: S. cerevisiae GFP-tagged strains, 3 h
YOR371C = conditions: S. cerevisiae GFP-tagged strains, 3 h
YKL103C = conditions: S. cerevisiae GFP-tagged strains, 3 h
YEL063C = conditions: S. cerevisiae GFP-tagged strains, 3 h
YCR005C = conditions: S. cerevisiae GFP-tagged strains, 3 h
YBR139W = conditions: S. cerevisiae GFP-tagged strains, 3 h
YGR121C = conditions: S. cerevisiae GFP-tagged strains, 3 h
YNL112W = conditions: S. cerevisiae GFP-tagged strains, 3 h
YPR184W = conditions: S. cerevisiae GFP-tagged strains, 3 h
YHR144C = conditions: S. cerevisiae GFP-tagged strains, 3 h
YJR148W = conditions: S. cerevisiae GFP-tagged strains, 3 h
YPL131W = conditions: S. cerevisiae GFP-tagged strains, 3 h
YOR182C = conditions: S. cerevisiae GFP-tagged strains, 3 h
YLL026W = conditions: S. cerevisiae GFP-tagged strains, 3 h
YEL007W = conditions: S. cerevisiae GFP-tagged strains, 3 h
YDR453C = conditions: S. cerevisiae GFP-tagged strains, 3 h
YFR031C-A = conditions: S. cerevisiae GFP-tagged strains, 3 h
YKR094C = conditions: S. cerevisiae GFP-tagged strains, 3 h
YLR237W = conditions: S. cerevisiae GFP-tagged strains, 3 h
YNL214W = conditions: S. cerevisiae GFP-tagged strains, 3 h
YML128C = conditions: S. cerevisiae GFP-tagged strains, 3 h
YFR053C = conditions: S. cerevisiae GFP-tagged strains, 3 h
YHR203C = conditions: S. cerevisiae GFP-tagged strains, 3 h
YDR382W = conditions: S. cerevisiae GFP-tagged strains, 3 h
YGL036W = conditions: S. cerevisiae GFP-tagged strains, 3 h
YAL061W = conditions: S. cerevisiae GFP-tagged strains, 3 h
YJL056C = conditions: S. cerevisiae GFP-tagged strains, 3 h
YOR038C = conditions: S. cerevisiae GFP-tagged strains, 3 h
YBR208C = conditions: S. cerevisiae GFP-tagged strains, 3 h
YLR142W = conditions: S. cerevisiae GFP-tagged strains, 3 h
YNL015W = conditions: S. cerevisiae GFP-tagged strains, 3 h
YOR173W = conditions: S. cerevisiae GFP-tagged strains, 3 h
YLR109W = conditions: S. cerevisiae GFP-tagged strains, 3 h
YER117W = conditions: S. cerevisiae GFP-tagged strains, 3 h
YLR287C-A = conditions: S. cerevisiae GFP-tagged strains, 3 h
YIL051C = conditions: S. cerevisiae GFP-tagged strains, 3 h
YHR141C = conditions: S. cerevisiae GFP-tagged strains, 3 h
YMR251W-A = conditions: S. cerevisiae GFP-tagged strains, 3 h
YML034W = conditions: S. cerevisiae GFP-tagged strains, 3 h
YHR018C = conditions: S. cerevisiae GFP-tagged strains, 3 h
YER156C = conditions: S. cerevisiae GFP-tagged strains, 3 h
YDL130W = conditions: S. cerevisiae GFP-tagged strains, 3 h
YBR072W = conditions: S. cerevisiae GFP-tagged strains, 3 h
YPR145W = conditions: S. cerevisiae GFP-tagged strains, 3 h
YGL147C = conditions: S. cerevisiae GFP-tagged strains, 3 h
YCL064C = conditions: S. cerevisiae GFP-tagged strains, 3 h
YDR070C = conditions: S. cerevisiae GFP-tagged strains, 3 h
YDR399W = conditions: S. cerevisiae GFP-tagged strains, 3 h
YKR039W = conditions: S. cerevisiae GFP-tagged strains, 3 h
YGR088W = conditions: S. cerevisiae GFP-tagged strains, 3 h
YER151C = conditions: S. cerevisiae GFP-tagged strains, 3 h

SMILES: CNc1nc(N)c([N+](=O)[O-])c(Nc2ccccc2OC)n1
- GFP ratio to DMSO (YOR375C): 0.81 (inactive)
- GFP ratio to DMSO (YBR248C): 0.723 (inactive)
- GFP ratio to DMSO (YHL021C): 0.726 (inactive)
- GFP ratio to DMSO (YEL060C): 0.535
- GFP ratio to DMSO (YEL071W): 0.904 (inactive)
- GFP ratio to DMSO (YIL069C): 0.717 (inactive)
- GFP ratio to DMSO (YML063W): 0.482
- GFP ratio to DMSO (YHR087W): 1.71
- GFP ratio to DMSO (YNL142W): 0.756 (inactive)
- GFP ratio to DMSO (YPL265W): 0.542
- GFP ratio to DMSO (YML026C): 1.64
- GFP ratio to DMSO (YDL205C): 0.742 (inactive)
- GFP ratio to DMSO (YCR002C): 0.541
- GFP ratio to DMSO (YGR034W): 0.607
- GFP ratio to DMSO [1]: 0.804 (inactive)
- GFP ratio to DMSO (YKL119C): 0.774 (inactive)
- GFP ratio to DMSO (YGR019W): 0.679 (inactive)
- GFP ratio to DMSO (YLL039C): 0.576
- GFP ratio to DMSO (YIL066C): 0.693 (inactive)
- GFP ratio to DMSO (YAL060W): 0.645
- GFP ratio to DMSO (YPL111W): 0.779 (inactive)
- GFP ratio to DMSO (YGL135W): 1.01 (inactive)
- GFP ratio to DMSO (YNL068C): 0.738 (inactive)
- GFP ratio to DMSO (YPL150W): 0.677 (inactive)
- GFP ratio to DMSO (YML004C): 0.689 (inactive)
- GFP ratio to DMSO (YKL086W): 0.777 (inactive)
- GFP ratio to DMSO (YIL052C): 0.379
- GFP ratio to DMSO (YNR001C): 0.75 (inactive)
- GFP ratio to DMSO (YOL052C-A): 2.31
- GFP ratio to DMSO (YPL220W): 0.579
- GFP ratio to DMSO (YJL144W): 7.28
- GFP ratio to DMSO (YMR120C): 0.433
- GFP ratio to DMSO (YDL204W): 0.703 (inactive)
- GFP ratio to DMSO (YBL087C): 1.71
- GFP ratio to DMSO (YKR093W): 0.526
- GFP ratio to DMSO (YPR132W): 1.76
- GFP ratio to DMSO (YOR136W): 0.793 (inactive)
- GFP ratio to DMSO (YLR367W): 0.847 (inactive)
- GFP ratio to DMSO (YMR105C): 0.849 (inactive)
- GFP ratio to DMSO (YOR063W): 0.813 (inactive)
- GFP ratio to DMSO (YIL043C): 0.829 (inactive)
- GFP ratio to DMSO (YLR058C): 0.606
- GFP ratio to DMSO (YMR307W): 0.757 (inactive)
- GFP ratio to DMSO (YGL062W): 0.915 (inactive)
- GFP ratio to DMSO (YER081W): 0.632
- GFP ratio to DMSO (YLR185W): 1.38 (inactive)
- GFP ratio to DMSO (YOR371C): 0.67 (inactive)
- GFP ratio to DMSO (YKL103C): 0.755 (inactive)
- GFP ratio to DMSO (YEL063C): 0.998 (inactive)
- GFP ratio to DMSO (YCR005C): 0.783 (inactive)
- GFP ratio to DMSO (YBR139W): 0.664 (inactive)
- GFP ratio to DMSO (YGR121C): 0.737 (inactive)
- GFP ratio to DMSO (YNL112W): 0.867 (inactive)
- GFP ratio to DMSO (YPR184W): 0.669 (inactive)
- GFP ratio to DMSO (YHR144C): 0.68 (inactive)
- GFP ratio to DMSO (YJR148W): 0.822 (inactive)
- GFP ratio to DMSO (YPL131W): 0.657 (inactive)
- GFP ratio to DMSO (YOR182C): 3.17
- GFP ratio to DMSO (YLL026W): 0.761 (inactive)
- GFP ratio to DMSO (YEL007W): 0.721 (inactive)
- GFP ratio to DMSO (YDR453C): 5.92
- GFP ratio to DMSO (YFR031C-A): 0.381
- GFP ratio to DMSO (YKR094C): 0.863 (inactive)
- GFP ratio to DMSO (YLR237W): 3.5
- GFP ratio to DMSO (YNL214W): 0.786 (inactive)
- GFP ratio to DMSO (YML128C): 0.697 (inactive)
- GFP ratio to DMSO (YFR053C): 0.642
- GFP ratio to DMSO (YHR203C): 0.792 (inactive)
- GFP ratio to DMSO (YDR382W): 0.349
- GFP ratio to DMSO (YGL036W): 0.643
- GFP ratio to DMSO (YAL061W): 0.668 (inactive)
- GFP ratio to DMSO (YJL056C): 0.664 (inactive)
- GFP ratio to DMSO (YOR038C): 0.771 (inactive)
- GFP ratio to DMSO (YBR208C): 0.657 (inactive)
- GFP ratio to DMSO (YLR142W): 0.7 (inactive)
- GFP ratio to DMSO (YNL015W): 1.84
- GFP ratio to DMSO (YOR173W): 0.726 (inactive)
- GFP ratio to DMSO (YLR109W): 0.271
- GFP ratio to DMSO (YER117W): 2.43
- GFP ratio to DMSO (YLR287C-A): 0.309
- GFP ratio to DMSO (YIL051C): 0.669 (inactive)
- GFP ratio to DMSO (YHR141C): 1.25 (inactive)
- GFP ratio to DMSO (YMR251W-A): 0.286
- GFP ratio to DMSO (YML034W): 0.676 (inactive)
- GFP ratio to DMSO (YHR018C): 0.649
- GFP ratio to DMSO (YER156C): 0.819 (inactive)
- GFP ratio to DMSO (YDL130W): 0.302
- GFP ratio to DMSO (YBR072W): 3.23
- GFP ratio to DMSO (YPR145W): 0.81 (inactive)
- GFP ratio to DMSO (YGL147C): 0.902 (inactive)
- GFP ratio to DMSO (YCL064C): 0.707 (inactive)
- GFP ratio to DMSO (YDR070C): 0.503
- GFP ratio to DMSO (YDR399W): 2.04
- GFP ratio to DMSO (YKR039W): 1.41 (inactive)
- GFP ratio to DMSO (YGR088W): 0.767 (inactive)
- GFP ratio to DMSO (YER151C): 0.745 (inactive)
